The values that follow come from ChEMBL document CHEMBL1641373, “Trishomocubane as a scaffold for the development of selective dopamine transporter (DAT) ligands” (Bioorg Med Chem Lett, 2011).

For assay [1], the target named is Sodium-dependent dopamine transporter (Homo sapiens, UniProt Q01959). Description: Inhibition of DAT.
In assay [2] the target is Sodium-dependent noradrenaline transporter (Homo sapiens, UniProt P23975). Nature of the assay: Inhibition of NET.
In assay [3] the target is Sodium-dependent serotonin transporter (Homo sapiens, UniProt P31645). Description: Inhibition of SERT.

SMILES strings stand for the structures. pIC50, pKi: −log10 of the molar value.

Chain of Sodium-dependent noradrenaline transporter (P23975 whole entry): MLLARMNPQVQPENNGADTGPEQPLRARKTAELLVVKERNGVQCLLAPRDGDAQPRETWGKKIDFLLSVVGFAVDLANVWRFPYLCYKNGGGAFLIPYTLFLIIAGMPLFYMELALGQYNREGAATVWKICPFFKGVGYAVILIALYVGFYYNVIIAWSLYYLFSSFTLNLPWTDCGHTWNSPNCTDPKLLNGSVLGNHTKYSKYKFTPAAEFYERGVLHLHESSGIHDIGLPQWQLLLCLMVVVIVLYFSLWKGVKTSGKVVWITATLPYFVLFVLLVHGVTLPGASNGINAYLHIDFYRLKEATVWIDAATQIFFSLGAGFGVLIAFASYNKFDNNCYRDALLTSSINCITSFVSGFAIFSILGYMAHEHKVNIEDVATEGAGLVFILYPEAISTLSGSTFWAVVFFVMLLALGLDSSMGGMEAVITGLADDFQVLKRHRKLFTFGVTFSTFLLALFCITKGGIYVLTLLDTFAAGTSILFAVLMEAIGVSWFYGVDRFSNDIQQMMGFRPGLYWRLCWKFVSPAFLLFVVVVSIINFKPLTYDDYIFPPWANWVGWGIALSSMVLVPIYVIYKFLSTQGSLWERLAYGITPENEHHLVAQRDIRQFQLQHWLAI
Chain of Sodium-dependent dopamine transporter (Q01959 whole entry): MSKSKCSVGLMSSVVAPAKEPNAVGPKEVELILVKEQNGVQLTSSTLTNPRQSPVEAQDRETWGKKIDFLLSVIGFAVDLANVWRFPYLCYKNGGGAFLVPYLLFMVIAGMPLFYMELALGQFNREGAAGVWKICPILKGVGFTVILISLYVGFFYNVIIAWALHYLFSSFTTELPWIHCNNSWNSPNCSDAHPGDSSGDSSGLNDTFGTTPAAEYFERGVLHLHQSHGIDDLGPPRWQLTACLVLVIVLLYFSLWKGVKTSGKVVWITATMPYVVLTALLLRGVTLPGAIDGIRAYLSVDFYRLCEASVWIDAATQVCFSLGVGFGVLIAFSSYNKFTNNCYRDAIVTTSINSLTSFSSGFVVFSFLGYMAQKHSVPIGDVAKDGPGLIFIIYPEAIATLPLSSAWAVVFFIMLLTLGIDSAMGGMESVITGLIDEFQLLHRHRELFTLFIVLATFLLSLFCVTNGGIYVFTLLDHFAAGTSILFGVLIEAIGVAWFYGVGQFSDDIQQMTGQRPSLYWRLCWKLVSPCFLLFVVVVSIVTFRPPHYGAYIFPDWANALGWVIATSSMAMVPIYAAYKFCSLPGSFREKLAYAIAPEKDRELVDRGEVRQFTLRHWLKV
Chain of Sodium-dependent serotonin transporter (P31645 whole entry): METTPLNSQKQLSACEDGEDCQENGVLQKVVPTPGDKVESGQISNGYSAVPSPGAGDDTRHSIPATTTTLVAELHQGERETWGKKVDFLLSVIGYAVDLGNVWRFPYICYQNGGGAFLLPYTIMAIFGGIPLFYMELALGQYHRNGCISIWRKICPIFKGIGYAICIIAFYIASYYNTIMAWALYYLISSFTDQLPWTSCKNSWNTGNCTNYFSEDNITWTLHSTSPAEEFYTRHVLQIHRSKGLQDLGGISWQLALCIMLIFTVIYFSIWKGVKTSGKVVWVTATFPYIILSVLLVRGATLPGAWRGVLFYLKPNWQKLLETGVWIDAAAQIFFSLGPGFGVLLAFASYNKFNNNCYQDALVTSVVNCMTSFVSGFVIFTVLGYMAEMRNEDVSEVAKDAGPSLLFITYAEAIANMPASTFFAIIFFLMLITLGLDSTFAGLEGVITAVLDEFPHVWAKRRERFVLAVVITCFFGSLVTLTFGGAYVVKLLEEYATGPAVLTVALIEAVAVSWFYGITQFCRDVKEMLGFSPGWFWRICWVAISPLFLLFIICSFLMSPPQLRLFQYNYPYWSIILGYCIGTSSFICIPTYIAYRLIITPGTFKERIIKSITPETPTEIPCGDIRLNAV

As for `CN(C)C[C@H]1C2CCC(CC2)[C@H]1c1ccc(Cl)c(Cl)c1`, the pKi (usually the negative decadic logarithm of the Ki, by convention in mol/L) is 8.14 in assay [1], 7.36 in assay [2] and 7.24 in assay [3].
As for `COC(=O)[C@@H]1C2CCC(C[C@@H]1c1ccc(C)cc1)N2C/C=C/CF` (some centres undefined), the pIC50 – broadly, the IC50 on a negative log10 scale, so that one unit is a factor of ten – in assay [1] is 8.62; in assay [2], under 6.00; in assay [3] it was under 6.00.
For the compound `CN1[C@H]2CC[C@@H]1[C@@H](C(=O)N1CCCC1)[C@@H](c1ccc(I)cc1)C2`, the pIC50 was 9.43 in assay [1], 5.76 in assay [2] and 6.00 in assay [3].
`COC(=O)[C@H]1[C@@H](c2ccc(C)cc2)C[C@H]2CC[C@@H]1N2C/C=C/I`: the values for the negative-log Ki (pKi) in assay [1], in assay [2] and in assay [3] were 7.77, under 6.00 and 6.30, respectively.
For the compound `NCCN1[C@@H]2CC[C@H]1C[C@@H](NC(c1ccc(F)cc1)c1ccc(F)cc1)C2`, the negative logarithm of the Ki (pKi) in assay [1] was 7.90.
As to `CCCCC1=C(c2ccc(Cl)cc2)C2CCN1CC2`, the negative logarithm of the Ki (pKi) in assay [1] is 7.85.
